In PMC2829539, “Unchanged triclabendazole kinetics after co-administration with ivermectin and methimazole: failure of its therapeutic activity against triclabendazole-resistant liver flukes” (BMC Veterinary Research, 2010):
Where “and” joins values, the source holds several entries; their conditions need not be identical. Equal values may be shown once.

Columns and labels:
[1] = set-up: method as in Alvarez et al., 2008; details: ref Alvarez et al., 2008, cited from earlier work
[2] = tested on: TCBZ-resistant F. hepatica (Sligo isolate); test: Clinical efficacy study: fluke counts 15 days after treatment; format: in vivo, Fasciola hepatica
Method: (§1) Animals were each orally infected with eighty (80) metacercariae of a TCBZ-resistant F. hepatica isolate, named Sligo. For details of the history of the Sligo isolate, see previous works. Sixteen weeks after infection, animals were randomly distributed into three experimental groups (n = 4 each): Group I, which represented the untreated control group; Group II, in which animals were treated with TCBZ (Fasinex®, Novartis) by the i.r. route at 10 mg/kg dose rate; and Group III, in which animals were simultaneously treated with TCBZ (Fasinex®, Novartis) by the i.r. route (10 mg/kg) and IVM (Ivosint®, Biogénesis) by the s.c. route (0.2 mg/kg, internal face of the thigh). Additionally, animals in Group III were treated by the intramuscular (i.m.) route (Semitendinosus muscle) with MTZ (2.5% aqueous solution) at a dose rate of 1.5 mg/kg. MTZ administration was performed 30 min after TCBZ/IVM treatment. Blood samples (5 ml) were taken by jugular venipunctures into heparinised Vacutainers® tubes (Becton Dickinson, USA) before administration (time 0) and at 1, 3, 6, 9, 12, 18, 24, 30, 36, 48, 72, 96, 120 and 144 h post-treatment. Plasma was separated by centrifugation at 3000 g for 15 min, placed into plastic tubes and frozen at -20°C until analyzed by high performance liquid chromatography (HPLC).
Fifteen days after treatment all animals were stunned and exsanguinated immediately. Adult F. hepatica specimens were recovered from the common bile ducts and the gall bladder of each sheep and counted according to the World Association for the Advancement of Veterinary Parasitology (W.A.A.V.P) guidelines. The efficacy of each anthelmintic treatment was determined by the comparison of F. hepatica burdens in treated versus untreated animals. The following equation expresses the percent efficacy (% E) of a drug treatment against F. hepatica (F.h.) in a single treatment group (T) when compared with an untreated control (C). [drawing 1]
The geometric mean was used as it most accurately represents the distribution of parasite populations within each group.

[3] = Plasma disposition kinetics of TCBZ metabolites in F. hepatica-infected sheep (HPLC, non-compartmental analysis); format: in vivo; details: for AUC0-∞ / AUC0-t / Cmax / MRT (mean residence time) / T1/2el (elimination half-life) / T1/2for (formation half life) / Tmax: in vivo, 10 mg/kg; for Time metabolites were recovered in plasma post-treatment: sheep plasma, both treated groups, last sampling time 144 h; for AUC0-t / Cmax / MRT (mean residence time) / T1/2el (elimination half-life) / T1/2for (formation half life) / Tmax: sheep
Method: as §1
TCBZ and its metabolites were extracted from plasma as previously described. Samples (1 ml) were spiked with 10 μl of oxibendazole (OBZ) (100 μg/ml), used as internal standard. After addition of 2 ml of acetonitrile, samples were shaken for 20 min (multivortex) and then centrifuged at 2500 g for 15 min. The supernatants were recovered and evaporated to dryness in a vacuum concentrator (Speed-Vac®, Savant, Los Angeles, USA). The dry extracts were reconstituted in 300 μl of mobile phase and an aliquot of 50 μl was injected into the HPLC system.
Experimental and fortified plasma samples were analysed by HPLC to determine the concentration of TCBZ and its metabolites following the methodology previously described. The elution from the stationary phase (Selectosil C18 column, 5 μm, 250 × 4.6 mm, Phenomenex®, CA, USA) was carried out at a flow rate of 1.2 ml/min, using a mixture of acetonitrile/ammonium acetate (0.025 M, pH 6.6) as mobile phase. Fifty μl of each previously extracted sample were injected into a Shimadzu 10 A HPLC System (Kyoto, Japan), using a gradient pump, UV detector set at 300 nm, an autosampler and a controller (Shimadzu Class LC10, Kyoto, Japan). Analytes were identified by the retention times of pure reference standards. Chromatographic retention times were: 4.09 (OBZ), 5.91 (TCBZ.SO), 7.95 (TCBZ.SO2) and 10.36 (TCBZ) min. […] The absolute recovery of drug analytes from plasma was calculated by comparison of the peak areas from spiked plasma samples with the peak areas resulting from direct injections of standards in mobile phase. Mean absolute recoveries and coefficient of variations (CV) within the concentration range between 0.1 and 25 μg/ml (triplicate determinations) were 89.2% (CV: 6.74%) (TCBZ), 87.1% (CV: 6.03%) (TCBZ.SO) and 90.1% (CV: 4.75%) (TCBZ.SO2). Precision (intra- and inter-assay) was determined by analysing replicates of fortified plasma samples (n = 5) with each compound at three different concentrations (0.1, 5 and 10 μg/ml). CV ranged from 2.54 to 14.6%. The limit of quantification (LOQ) was defined as the lowest measured concentration with a CV <20% and accuracy of ±20% and an absolute recovery ≥70%. The LOQ defined for the three molecules assayed was 0.1 μg/ml. Values below LOQ were not included in the pharmacokinetic analysis.
The concentration versus time curves for TCBZ metabolites in plasma for individual animals were fitted with the PKSolutions™ computer program/programme (Summit Research Service, Ashland, USA). Pharmacokinetic analysis of the experimental data was performed by non-compartmental analysis. […]

| SMILES | Initial plasma concentration ([1]; after i.v. administration) | Peak plasma concentration ([1]; after s.c. administration at the same dose rate) | Individual fluke counts ([2]; sheep infected with 80 metacercariae, treated 16 weeks after infection, counted 15 days post-treatment, one value per animal (n = 4)) | Arithmetic mean fluke count ([2]; sheep, 15 days post-treatment, n = 4, untreated control 13.25) | Clinical efficacy ([2]; sheep, 15 days post-treatment, versus untreated control, calculated using geometric means) | AUC0-∞ [3] | Time metabolites were recovered in plasma post-treatment [3] | AUC0-t [3] | Cmax [3] | MRT (mean residence time) [3] | T1/2el (elimination half-life) [3] | T1/2for (formation half life) [3] | Tmax [3] | Share of the total analytes found in sheep plasma ([3]; after i.r. administration of TCBZ) |
| --- | --- | --- | --- | --- | --- | --- | --- | --- | --- | --- | --- | --- | --- | --- |
| CC[C@H](C)[C@H]1O[C@]2(CC[C@@H]1C)C[C@@H]1C[C@@H](C/C=C(\C)[C@@H](O[C@H]3C[C@H](OC)[C@@H](O[C@H]4C[C@H](OC)[C@@H](O)[C@H](C)O4)[C@H](C)O3)[C@@H](C)/C=C/C=C3\CO[C@@H]4[C@H](O)C(C)=C[C@@H](C(=O)O1)[C@]34O)O2 [IVM, ivermectin] | 281.2 ± 32.6 ng/mL | 21.3 ± 13.3 ng/mL | – | – | – | – | – | – | – | – | – | – | – | – |
| CSc1nc2cc(Cl)c(Oc3cccc(Cl)c3Cl)cc2[nH]1 [TCBZ alone, 6-chloro-5(2-3 dichlorophenoxy)-2-methyl thio-benzimidazole] | – | – | 2 and 12 and 8 and 5 | 6.75 | 56% | – | – | – | – | – | – | – | – | – |
| CS(=O)(=O)c1nc2cc(Oc3cccc(Cl)c3Cl)c(Cl)cc2[nH]1 [TCBZ.SO2, triclabendazole sulphone] | – | – | – | – | – | 917.9 ± 270.6 µg·h/mL | up to 144 h | 868.2 ± 217.6 µg·h/mL | 13500 ± 1680 ng/mL | 61.3 ± 17.2 h | 26.8 ± 10.9 h | 12.3 ± 2.90 h | 39.0 ± 6.00 h | – |
| C[S+]([O-])c1nc2cc(Oc3cccc(Cl)c3Cl)c(Cl)cc2[nH]1 (stereo not shown) [TCBZ.SO, triclabendazole sulphoxide] | – | – | – | – | – | 661.5 ± 148.5 µg·h/mL | up to 144 h | 653.9 ± 140.6 µg·h/mL | 14000 ± 850 ng/mL | 38.8 ± 10.5 h | 17.5 ± 8.45 h | 6.85 ± 2.18 h | 22.5 ± 7.55 h | 42% |
